# Data reported in PubChem BioAssay AID2060330 (Molecular Pharmacology Branch, DTP, NCI, 2025).
# Test system: LG0703-F948-PDC spheroids with HUVEC/MSC, viability
# Experiment: Anticancer human tumor LG0703-F948-PDC patient-derived lung adenocarcinoma cell line growth inhibition [IpAb]
# Conditions: for IC50: curve of first compound; for viability, T/C: stronger effect = lower value
# In short: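 Combinations with ipatasertib or abemaciclib were tested on tumour spheroids holding HUVEC (25%) and MSC (15%) alongside 60% malignant cells. Top concentration was at or near clinical Cmax (10 microM if undefined), descending in half-log steps.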
# [1] = second compound 0.01 µM, first compound 0.0316 µM
# [2] = second compound 0.01 µM, first compound 0.1 µM
# [3] = second compound 0.01 µM, first compound 0.316 µM
# [4] = second compound 0.01 µM, first compound 1 µM
# [5] = second compound 0.01 µM, first compound 3.16 µM
# [6] = second compound 0.01 µM, first compound 10 µM
# [7] = second compound 0.0316 µM, first compound 0.0316 µM
# [8] = second compound 0.0316 µM, first compound 0.1 µM
# [9] = second compound 0.0316 µM, first compound 0.316 µM
# [10] = second compound 0.0316 µM, first compound 1 µM
# [11] = second compound 0.0316 µM, first compound 3.16 µM
# [12] = second compound 0.0316 µM, first compound 10 µM
# [13] = second compound 0.1 µM, first compound 0.0316 µM
# [14] = second compound 0.1 µM, first compound 0.1 µM
# [15] = second compound 0.1 µM, first compound 0.316 µM
# [16] = second compound 0.1 µM, first compound 1 µM
# [17] = second compound 0.1 µM, first compound 3.16 µM
# [18] = second compound 0.1 µM, first compound 10 µM
# [19] = second compound 0.316 µM, first compound 0.0316 µM
# [20] = second compound 0.316 µM, first compound 0.1 µM
# [21] = second compound 0.316 µM, first compound 0.316 µM
# [22] = second compound 0.316 µM, first compound 1 µM
# [23] = second compound 0.316 µM, first compound 3.16 µM
# [24] = second compound 0.316 µM, first compound 10 µM
# [25] = second compound 1 µM, first compound 0.0316 µM
# [26] = second compound 1 µM, first compound 0.1 µM
# [27] = second compound 1 µM, first compound 0.316 µM
# [28] = second compound 1 µM, first compound 1 µM
# [29] = second compound 1 µM, first compound 3.16 µM
# [30] = second compound 1 µM, first compound 10 µM
# [31] = second compound 0.01 µM, first compound 0.00949 µM
# [32] = second compound 0.01 µM, first compound 0.03 µM
# [33] = second compound 0.01 µM, first compound 0.0949 µM
# [34] = second compound 0.01 µM, first compound 0.3 µM
# [35] = second compound 0.0316 µM, first compound 0.00949 µM
# [36] = second compound 0.0316 µM, first compound 0.03 µM
# [37] = second compound 0.0316 µM, first compound 0.0949 µM
# [38] = second compound 0.0316 µM, first compound 0.3 µM
# [39] = second compound 0.1 µM, first compound 0.00949 µM
# [40] = second compound 0.1 µM, first compound 0.03 µM
# [41] = second compound 0.1 µM, first compound 0.0949 µM
# [42] = second compound 0.1 µM, first compound 0.3 µM
# [43] = second compound 0.316 µM, first compound 0.00949 µM
# [44] = second compound 0.316 µM, first compound 0.03 µM
# [45] = second compound 0.316 µM, first compound 0.0949 µM
# [46] = second compound 0.316 µM, first compound 0.3 µM
# [47] = second compound 1 µM, first compound 0.00949 µM
# [48] = second compound 1 µM, first compound 0.03 µM
# [49] = second compound 1 µM, first compound 0.0949 µM
# [50] = second compound 1 µM, first compound 0.3 µM
# 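Note: spheroids exposed to compounds for seven days before readout.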
# 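Throughout, for viability, T/C: T/C percent relative to DMSO vehicle wells set as 100% viability.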
smiles,measurement,setting,value
C=CC(=O)N1CCN(c2nc(=O)n(-c3c(C)ccnc3C(C)C)c3nc(-c4c(O)cccc4F)c(F)cc23)C(C)C1 (stereo not given) + CCN1CCN(Cc2ccc(Nc3ncc(F)c(-c4cc(F)c5nc(C)n(C(C)C)c5c4)n3)nc2)CC1,IC50,second compound 0.01 µM,> 10 µM
same,IC50,second compound 0.0316 µM,> 10 µM
same,IC50,second compound 0.1 µM,> 10 µM
same,IC50,second compound 0.316 µM,> 10 µM
same,IC50,second compound 1 µM,> 10 µM
same,"viability, T/C",[1],110%
same,"viability, T/C",[2],110%
same,"viability, T/C",[3],107%
same,"viability, T/C",[4],121%
same,"viability, T/C",[5],111%
same,"viability, T/C",[6],79.5%
same,"viability, T/C",[7],95.5%
same,"viability, T/C",[8],92%
same,"viability, T/C",[9],94.2%
same,"viability, T/C",[10],104%
same,"viability, T/C",[11],99.2%
same,"viability, T/C",[12],75.9%
same,"viability, T/C",[13],86.6%
same,"viability, T/C",[14],95.5%
same,"viability, T/C",[15],91.2%
same,"viability, T/C",[16],94.5%
same,"viability, T/C",[17],91.8%
same,"viability, T/C",[18],73%
same,"viability, T/C",[19],88.1%
same,"viability, T/C",[20],85.6%
same,"viability, T/C",[21],82.3%
same,"viability, T/C",[22],97.7%
same,"viability, T/C",[23],95.6%
same,"viability, T/C",[24],79.6%
same,"viability, T/C",[25],89.8%
same,"viability, T/C",[26],82.9%
same,"viability, T/C",[27],46.8%
same,"viability, T/C",[28],96.6%
same,"viability, T/C",[29],95.7%
same,"viability, T/C",[30],73.1%
CC(=O)c1c(C)c2cnc(Nc3ccc(N4CCNCC4)cn3)nc2n(C2CCCC2)c1=O + CCN1CCN(Cc2ccc(Nc3ncc(F)c(-c4cc(F)c5nc(C)n(C(C)C)c5c4)n3)nc2)CC1,IC50,second compound 0.01 µM,> 0.3 µM
same,IC50,second compound 0.0316 µM,> 0.3 µM
same,IC50,second compound 0.1 µM,> 0.3 µM
same,IC50,second compound 0.316 µM,> 0.3 µM
same,IC50,second compound 1 µM,> 0.3 µM
same,"viability, T/C","second compound 0.01 µM, first compound 0.000949 µM",106%
same,"viability, T/C","second compound 0.01 µM, first compound 0.003 µM",102%
same,"viability, T/C",[31],92%
same,"viability, T/C",[32],89.5%
same,"viability, T/C",[33],88.7%
same,"viability, T/C",[34],83.9%
same,"viability, T/C","second compound 0.0316 µM, first compound 0.000949 µM",97.9%
same,"viability, T/C","second compound 0.0316 µM, first compound 0.003 µM",85.7%
same,"viability, T/C",[35],84.5%
same,"viability, T/C",[36],97.8%
same,"viability, T/C",[37],83.5%
same,"viability, T/C",[38],76.8%
same,"viability, T/C","second compound 0.1 µM, first compound 0.000949 µM",81.7%
same,"viability, T/C","second compound 0.1 µM, first compound 0.003 µM",77.7%
same,"viability, T/C",[39],71.6%
same,"viability, T/C",[40],81.9%
same,"viability, T/C",[41],92.1%
same,"viability, T/C",[42],70.5%
same,"viability, T/C","second compound 0.316 µM, first compound 0.000949 µM",89.1%
same,"viability, T/C","second compound 0.316 µM, first compound 0.003 µM",86.8%
same,"viability, T/C",[43],88%
same,"viability, T/C",[44],90.9%
same,"viability, T/C",[45],84.7%
same,"viability, T/C",[46],81.4%
same,"viability, T/C","second compound 1 µM, first compound 0.000949 µM",82.3%
same,"viability, T/C","second compound 1 µM, first compound 0.003 µM",77.3%
same,"viability, T/C",[47],54.4%
same,"viability, T/C",[48],83%
same,"viability, T/C",[49],86.4%
same,"viability, T/C",[50],79.7%
CC(C)(C)c1cnc(CSc2cnc(NC(=O)C3CCNCC3)s2)o1 + CCN1CCN(Cc2ccc(Nc3ncc(F)c(-c4cc(F)c5nc(C)n(C(C)C)c5c4)n3)nc2)CC1,IC50,second compound 0.01 µM,0.077 µM
same,IC50,second compound 0.0316 µM,0.0509 µM
same,IC50,second compound 0.1 µM,0.0517 µM
same,IC50,second compound 0.316 µM,0.0394 µM
same,IC50,second compound 1 µM,0.0319 µM
same,"viability, T/C",[31],98.5%
same,"viability, T/C",[32],86%
same,"viability, T/C",[33],43%
same,"viability, T/C",[34],0.52%
same,"viability, T/C","second compound 0.01 µM, first compound 0.949 µM",0.27%
same,"viability, T/C","second compound 0.01 µM, first compound 3 µM",0.36%
same,"viability, T/C",[35],79.2%
same,"viability, T/C",[36],67.3%
same,"viability, T/C",[37],29.3%
same,"viability, T/C",[38],0.36%
same,"viability, T/C","second compound 0.0316 µM, first compound 0.949 µM",0.13%
same,"viability, T/C","second compound 0.0316 µM, first compound 3 µM",0.27%
same,"viability, T/C",[39],74.1%
same,"viability, T/C",[40],71.5%
same,"viability, T/C",[41],25.9%
same,"viability, T/C",[42],0.39%
same,"viability, T/C","second compound 0.1 µM, first compound 0.949 µM",0.19%
same,"viability, T/C","second compound 0.1 µM, first compound 3 µM",0.29%
same,"viability, T/C",[43],76.2%
same,"viability, T/C",[44],62%
same,"viability, T/C",[45],11.2%
same,"viability, T/C",[46],0.34%
same,"viability, T/C","second compound 0.316 µM, first compound 0.949 µM",0.2%
same,"viability, T/C","second compound 0.316 µM, first compound 3 µM",0.3%
same,"viability, T/C",[47],77.1%
same,"viability, T/C",[48],48.5%
same,"viability, T/C",[49],29.2%
same,"viability, T/C",[50],0.4%
same,"viability, T/C","second compound 1 µM, first compound 0.949 µM",0.41%
same,"viability, T/C","second compound 1 µM, first compound 3 µM",0.31%
Cn1nccc1Nc1nccc(-c2ccn(C(CO)c3ccc(Cl)c(F)c3)c(=O)c2)n1 (stereo not given) + CCN1CCN(Cc2ccc(Nc3ncc(F)c(-c4cc(F)c5nc(C)n(C(C)C)c5c4)n3)nc2)CC1,IC50,second compound 0.01 µM,> 10 µM
same,IC50,second compound 0.0316 µM,6.42 µM
same,IC50,second compound 0.1 µM,> 10 µM
same,IC50,second compound 0.316 µM,7.43 µM
same,IC50,second compound 1 µM,> 10 µM
same,"viability, T/C",[1],90.8%
same,"viability, T/C",[2],77%
same,"viability, T/C",[3],78.3%
same,"viability, T/C",[4],67.7%
same,"viability, T/C",[5],76.7%
same,"viability, T/C",[6],68%
same,"viability, T/C",[7],89.9%
same,"viability, T/C",[8],77.5%
same,"viability, T/C",[9],65%
same,"viability, T/C",[10],63%
same,"viability, T/C",[11],76.6%
same,"viability, T/C",[12],34.8%
same,"viability, T/C",[13],81.9%
same,"viability, T/C",[14],73.4%
same,"viability, T/C",[15],55.9%
same,"viability, T/C",[16],58.9%
same,"viability, T/C",[17],62.3%
same,"viability, T/C",[18],46.6%
same,"viability, T/C",[19],73%
same,"viability, T/C",[20],77.2%
same,"viability, T/C",[21],56.6%
same,"viability, T/C",[22],69.2%
same,"viability, T/C",[23],63.4%
same,"viability, T/C",[24],45.4%
same,"viability, T/C",[25],73.9%
same,"viability, T/C",[26],64.2%
same,"viability, T/C",[27],45.9%
same,"viability, T/C",[28],61.6%
same,"viability, T/C",[29],66.2%
same,"viability, T/C",[30],51%
